Source: patent publication US20050187152A1, “Prevention and treatment of hypergastrinemia” (Aphton Corporation, priority 1998, published 2005)
Where no end group is shown, it is not given here.

How the values were obtained:
[1] = system: crypts and tumors of the small and large intestine; assay: Bromodeoxyuridine in situ proliferation index in Min mice; assay type: in vivo, mouse; conditions: hypergastrinemic mice
Protocol: One hour prior to termination, mice were injected with DNA analogue bromodeoxyuridine in order to determine the comparative in situ proliferation activity. The samples were formalin fixed, paraffin embedded, sections were cut and stained with an anti-bromodeoxyuridine antibody.
Serum gastrin level was measured by RIA. Prior to end of treatment, proliferative index was determined by the bromodeoxyuridine method. • Group 1.

plasma gastrin [2] = conditions: 400 μmol/kg, 14 mg/kg, 10 weeks; cited from earlier work
plasma gastrin [3] = conditions: cited from earlier work
plasma gastrin [4] = conditions: cited from earlier work; remark: listed apart in the source
[5] = system: Min mouse model of familial adenomatous polyposis
Protocol: Accordingly, the effect of gastrin neutralization on Min mouse survival was determined.
The Min mice used in the study were bred within the Academic Unit of Cancer Studies at Nottingham University (U.K.) on a C57/BL background. […] The Min positive mice were then placed into each arm of the therapy on an ongoing basis.
Gastrin neutralization was achieved by using an immunogen, i.e. the gastrin immunogen preparation, which is composed of the amino terminal domain of gastrin-17 linked, via an amino acid spacer, to diphtheria toxoid which acts as the immunogenic carrier. The antibodies raised by virtue of the design of the immunogen, cross-react with both amidated and glycine-extended gastrin-17, known proliferative forms of gastrin. Min mice were immunized s.c. with the hG17-DT immunogen (100 mg/mouse) at week 4, with subsequent injections at 3 weekly intervals. […] The hG17-DT immunogen was administered to mice at 4 weeks of age to examine its effect on mice with an established tumor burden.
• Group 1. OME 75 mg/kg daily oral treatment • Group 2. OME+GSI 100 mg oral dose/mouse day 0 and every 3 weeks • Group 3. Oral vehicle+control immunogen • Group 4. Oral vehicle−control immunogen

[6] = target: rabbit anti-human G17(1-9):DT (N-terminal) antiserum; assay: Displacement of radiolabelled G17 from N-terminal specific antiserum; assay type: binding; conditions: antiserum 100 μg/ml on solid phase, radiolabelled G17 100 pg/ml; FIG. 11
Protocol: (§1) Antisera were absorbed onto a solid phase at a concentration of 100 μg/ml and displacement was determined in a competitive assay with a fixed concentration of radiolabelled G17 (100 pg/ml) and increasing concentrations of unlabelled ligands (1-25,000 pg/ml).

[7] = target: rabbit anti-G17 (C-terminal) antiserum; assay: Displacement of radiolabelled G17 from C-terminal specific antiserum; assay type: binding; conditions: antiserum 100 μg/ml on solid phase, radiolabelled G17 100 pg/ml; FIG. 12
Protocol: as §1

[8] = system: polypoid carcinomas from the large and small intestine of Min mice; assay: In vitro proliferation of Min mouse polypoid carcinomas, tetrazolium-based colorimetric assay; assay type: cell-based
Protocol: Polypoid carcinomas have been established in vitro from the large and small intestine of Min mice. Proliferation was assessed by a tetrazolium-based colorimetric ELISA assay.

[9] = same dose (400 μmol/kg, 14 mg/kg)
[10] = patients receiving 40 mg daily for eight years

Compound: COc1ccc2[nH]c([S+]([O-])Cc3ncc(C)c(OC)c3C)nc2c1 (centres unmarked) [omeprazole]
- proliferating cells, normal colonic mucosa ([1]; increased from 9.46%, p<0.05 Mann-Whitney): 20.1%
- proliferating cells, colonic neoplasia ([1]; increased from 22.3%, p<0.01): 35.0%
- ECL density increase at the end of treatment (plasma gastrin [2]): 37%
- increase in plasma gastrin during treatment (plasma gastrin [2]): threefold
- stomach weight increase at the end of treatment (plasma gastrin [2]): 34%
- increase in gastrin compared to controls (plasma gastrin [3]; female rats, long-term (1-year) daily 400 μmol/kg, 14 mg/kg): 15 fold
- ECL cell density increase (plasma gastrin [3]; [9]): about 300%
- increase of gastrin levels (plasma gastrin [3]; [9]): 10 fold
- markedly elevated gastrin levels (plasma gastrin [4]; occasionally, long term treatment, 20-60 mg/day): 10 fold
- prevalence of micronodular hyperplasia in atrophic gastritis (plasma gastrin [4]; [10]): 48%
- prevalence of micronodular hyperplasia in interstitial gastritis (plasma gastrin [4]; [10]): 19.6%
- prevalence of micronodular hyperplasia in superficial corpus gastritis (plasma gastrin [4]; [10]): 3.6%
- 50% survival ([5]; Example 2, OME 75 mg/kg daily oral, control group 16 weeks, p=0.0001 log rank): 8 weeks
- effect of omeprazole-induced hypergastrinemia on survival of Min mice ([5]; high daily doses of omeprazole): decreases the survival
- median survival ([5]; omeprazole-induced hypergastrinemia, reduced from approximately 10 weeks): ~6 weeks

Compound: G17: gastrin-17, unlabelled ligand in the displacement assay [Peptide G17]
- 50% inhibitory concentration (IC50), displacement of radiolabelled G17 [6]: 3.5 ng/mL
- 50% inhibitory concentration (IC50), displacement of radiolabelled G17 [7]: 0.8 ng/mL

Compound: G34: gastrin-34, unlabelled ligand in the displacement assay (QLGPQGPPHLVADPSKKQGPWLEEEEEAYGWMDF; ends and bridges not checked; UniProt P01350 59-92, looked up) [Peptide G34]
- IC25, displacement of radiolabelled G17 [7]: 0.5 ng/mL

Compound: amidated gastrin: amidated gastrin added to Min mouse tumor cultures (QGPWLEEEEEAYGWMDF-NH2; ends and bridges not checked; UniProt P01350 76-92, looked up)
- proliferation of large intestinal tumor in vitro [8]: not increased
- proliferation of small intestinal tumor in vitro [8]: not increased
